{"source": "patent US20140363383A1", "about": "“AEROSOL FORMULATION FOR COPD” (Chiesi Farmaceutici S.p.A, priority 2009, published 2014)", "experiment": "Compatibility with other active ingredients, especially formoterol", "assay_type": "physicochemical", "details": "versus glycopyrronium bromide"}
{"compound": "C[N+]1(C)CCC(OC(=O)C(O)(c2ccccc2)C2CCCC2)C1.[Cl-]", "note": "(stereo not shown) [glycopyrronium chloride, 3-[(cyclopentylhydroxyphenylacetyl)oxy]-1,1-dimethylpyrrolidinium chloride]", "values": [{"measurement": "compatibility with other active ingredients", "result": "better compatibility with other active ingredients"}]}
